# Experimental data published in patent publication US20190209472A1, “FORMULATIONS FOR DERMAL DELIVERY OF POLYMER CONJUGATES OF INDOLOCARBAZOLE COMPOUNDS WITH REDUCED EXPOSURE” (Sienna Biopharmaceuticals, Inc., priority 2017, published 2019).
# How the values were obtained:
# [1] = Phase 1b maximal use study: plasma pharmacokinetics of SNA-120; type: in vivo, human; details: any post-baseline timepoint; no detectable levels
# Method: This is a multicenter, open-label, Phase 1b study designed to evaluate the PK with maximal use of 0.5% w/w SNA-120 ointment (see Table 1), as measured by circulating plasma levels of SNA-120 in men and women aged ≥18 years who have at least moderate (e.g., moderate to severe) pruritus associated with at least moderate (e.g., moderate to severe) psoriasis vulgaris (PV) covering at least 20% body surface area (BSA). SNA-120 was evaluated as a topical, non-steroidal ointment to treat itch (pruritus) associated with psoriasis. SNA-120 was designed to achieve high local drug concentration in the target tissue while minimizing systemic exposure for patients. SNA-120 directly targets the peripheral itch pathway in the psoriatic plaque.
# Approximately 30 eligible subjects will receive 0.5% w/w SNA-120 ointment (2 mg/cm^2) proportional to approximately 35 mg active drug at each application for a subject with at least 20% BSA affected, administered twice daily over 4 weeks to the indicated areas in the Treatment Area. […]
# Pharmacokinetics—Blood: Serial blood draws for PK analysis will be obtained approximately the same time of day for Study Days 1 and 29. […] On Days 1 and 29, blood draws will be collected after each nominal ECG extraction time point; the actual times of collection will be recorded in the eCRF. […]
# [2] = Validation of HPLC methods (SNA-120 assay and related substances, benzyl alcohol); details: benzyl alcohol in ointment sample solutions stored at ambient conditions
# Description: An HPLC method was developed for the detection of assay and related substances of SNA-120 drug product and placebo. The following method validation parameters were challenged: specificity; linearity; accuracy; precision (system and repeatability); range; stability of test solutions; limit of detection and quantitation; system suitability.
# An HPLC method was developed for the detection of Benzyl Alcohol in SNA-120 drug product and placebo. The following method validation parameters were challenged: specificity; linearity; accuracy; precision (system and repeatability); range; stability of test solutions; system suitability.
SMILES,Plasma levels of K252b [1] [ng/mL],Stability of test solutions: samples stable for up to [2]
C[C@]12O[C@H](C[C@]1(O)C(=O)O)n1c3ccccc3c3c4c(c5c6ccccc6n2c5c31)CNC4=O [Lot K252b],< 0.250,–
OCc1ccccc1 [benzyl alcohol],–,ambient conditions. Samples are stable for up to 2 days
